Source: a melting point compilation (Tetko et al.; mined from patent text by program, amines drawn as free bases though some values may be those of a salt)

SMILES	melting point
COCc1ccc(C)c(NC(=O)CC23CC4CC(CC(C4)C2)C3)c1	127 to 128 °C
Cc1ccc(Oc2ccc(Oc3ccc(C)c(C)c3)cc2)cc1C	106 °C
CCCc1ccc(S(=O)(=O)Nc2ccc3snc(NC(C)=O)c3c2)cc1	254 to 255 °C
CCN(CC)c1c(OC)cccc1C(=O)O	68 to 71 °C
CCc1cc(O)n2ncc(CC)c2n1	> 310 °C
COc1ccc2c3c(oc2c1)CC(C(=O)O)CC3 (stereo unspecified)	175 to 180 °C
COc1cc2c(cc1OC)CC(N(CC(=O)O)C(=O)C(C)CSC(C)=O)C2 (stereo unspecified)	135 to 137 °C
O=C(NCC/C=C/CCCNC(=O)c1ccc(OC(F)F)cc1)c1ccc(OC(F)F)cc1	122 to 123 °C
Nc1cccc2c1Cc1cccc(N)c1C2	179 °C
CC(=O)OCC12CCC(OC(C)=O)CC1CC=C1C2CCC2(C)C(OC(=O)C(C)(C)C)CCC12O (stereo unspecified)	141 to 142 °C
CC(=O)c1cc(F)c(O)c(F)c1	141 to 143 °C
C[C@@H](O)CNc1c(-c2ccc(F)cc2)c(=O)c1=O	235 to 237 °C
CCC[C@@H]1COC(=O)N1c1nc(-c2ccc(Br)cc2)cs1	114 to 116 °C
COc1cc(C)nc(-n2cncn2)n1	142 to 143 °C
CCN(CC)C(=O)COc1ccc(C(=O)CBr)cc1OC	101 to 103 °C
COCc1sc(N)nc1C	132 to 135 °C
CC(C)c1ccc(CCNc2ncnc3ncccc23)cc1	200 to 203 °C
CCN(CC)C(=O)c1nc(C)n2c1CN=C(c1ccccc1F)c1cc(Cl)ccc1-2	182 to 188 °C
CCCc1cc2c(c3ccc(O)cc13)OCc1cc(O)ccc1-2	86 to 95 °C
CN(C)C(=O)n1oc(CCl)c(Cl)c1=O	107 to 108 °C
CC(=O)Nc1ccc(S(=O)(=O)Nc2cc(C)c(S(=O)(=O)C[N+](=O)[O-])c(C)c2)cc1	209 to 210 °C
COc1cccc2c1OC1C=CC=C3C(=O)N(CC4CC4)C(=O)CC321 (stereo unspecified)	166 to 167 °C
C=CCN(CCC)S(=O)(=O)NC(=O)c1cc(N=C=S)c(F)cc1Cl	83 to 85 °C
CC1(C)CN=C(Cc2ccc(Cl)cc2)NC1	130 to 132 °C
CN(C)S(=O)(=O)c1ccc(Br)cc1OC(F)(F)F	55 to 58 °C
O=CC(=C(c1ccc(F)cc1)c1ccc(F)cc1)n1cnnn1	161 °C
CC1CC(C)(C)C(CNc2ccnc3cc(Cl)ccc23)C1N (stereo unspecified)	> 250 °C
CCOC(=O)c1cc(C)nn1C	150 to 154 °C

SMILES	melting point
CCn1cc(C=O)c(OCc2ccc(OCc3nc(-c4ccco4)oc3C)c(OC)c2)n1	103 to 104 °C
O=C1NCC=Cc2c1[nH]c(Br)c2Br	170 to 175 °C
O=c1c2cccc(O)c2nc(-c2ccc(OCCCl)cc2)n1-c1ccc(O)cc1	188 to 190 °C
CC(=O)SCCC(=O)N1c2ccc(C)cc2CCC1C(=O)O (stereo unspecified)	118 to 120 °C
N#Cc1cccc(C2=Nc3ccc(C#CC4=CC(=O)CCC4)cc3NC(=O)C2)c1	110 °C
Cc1cc(-c2cccc3c2C(=O)OC(C)(C)O3)on1	74 °C
COc1cc(C(=O)O)cc(OC)c1OC(C)=O	181 to 183 °C
CN(C)Nc1cc(Oc2nn(C)c(C(F)(F)F)c2Cl)ccc1[N+](=O)[O-]	72 to 76 °C
O=S(=O)(c1ccc(Br)cc1)N1CCN(CC2CCN(c3ccncc3)CC2)CC1	179 to 180 °C
C#CCOC(=O)c1cc(-n2c(=O)cc(C)n(C)c2=O)c(F)cc1C#N	174 to 177 °C
CSC1CC(=O)N1CC(=O)c1ccccc1 (stereo unspecified)	43 to 45 °C
Cc1nc2c(N)nc3cccnc3c2n1CC1(O)CCNCC1	> 260 °C
CCC(C)C(NC(=O)C(C)CS)C(=O)O (stereo unspecified)	164 °C
NCCNc1cccc2cn[nH]c12	166 to 168 °C
CC(CNc1cccc(C(F)(F)F)c1)Nc1cccc(C(F)(F)F)c1 (stereo unspecified)	116 to 120 °C
CCSc1cc(C)nc(SCC)c1NC(=O)CCCCCCSc1nc2cccc(C(F)(F)F)c2o1	127 to 128 °C
CCOC(=O)C1=C(C)NC(C)=C(C(=O)OCC)C1c1ccc(OCCCN(C)C)c(OC)c1	62 °C
O=C1C=C(NC(=O)C(=O)c2cn(Cc3ccc(Cl)cc3)c3cccc(NC(=O)c4ccc(Cl)cc4)c23)CO1	> 300 °C
COc1cc2nc(NC3CC3)nc(-c3cccc([N+](=O)[O-])c3)c2cc1OC	140 to 142 °C
CC(C)c1ccc(-c2ccc(F)cc2)n1C(C)CC1CC(O)CC(=O)O1 (stereo unspecified)	167 to 169 °C
CCOC(=O)c1nc2c(=O)[nH]c3cc(C(F)(F)F)ccc3n2c1CN1CCN(C)CC1	255 °C
Cc1noc(NC(=O)N2CCN(c3nccc(-c4cccc(F)c4F)n3)CC2)c1C	193 to 194 °C
COc1cccc(NC(=O)C23CC4CC(CC(C4)C2)C3)c1	172 to 174 °C
Cn1ncnc1COc1nc2c(cc1-c1ccc(F)cc1)nnn2-c1ccccc1F	142 to 145 °C
CCCc1nc(-n2cccc2)c(CO)[nH]1	155 to 158 °C
COc1ccc(N2CCN(c3c(C)c(C)c4c(c3C)C(O)(c3ccc(F)cc3)C(C)(C)O4)CC2)cc1 (stereo unspecified)	142 to 144 °C
CCOC(=O)CCc1cc(C(=O)c2ccc(C(=O)OCC)cc2)ccc1OCCCCCBr	76.5 to 78 °C

The next lines start with the values.

melting point	SMILES
133 to 135 °C	NC(=NO)c1ccc(NC(=O)CC(=O)N2CCC(OCC(=O)O)CC2)cc1
165 to 167 °C	O=C1CCC(N2Cc3c(OCc4ccc(CN5CCN(c6ccccn6)CC5)cc4)cccc3C2=O)C(=O)N1 (stereo unspecified)
195 to 197 °C	O=C(Nc1ccccc1F)c1ccccc1CN1C(=O)C2(COc3cc4c(cc32)CCO4)c2ccccc21 (stereo unspecified)
109 to 114 °C	CN(C)c1ccc(NC(=O)N(C[C@H]2CCC[C@H](CN(C(=O)Nc3ccc(N(C)C)cc3)C3CCCCCC3)C2)C2CCCCCC2)cc1 (relative stereo)
226 to 233 °C	NC(=O)c1sc2nccc(N3CCC(c4ccccc4)CC3)c2c1N
196 to 198 °C	Cc1nnc2c(NC3CCCC3)nc3ccccc3n12
256 to 257 °C	Nc1cc(Oc2ccc3c(C(=O)Nc4ccc(F)c(C5CC5)c4)cccc3c2)ncn1
196 to 197 °C	O=C(O)C1(C(=O)O)CCC(c2c(-c3ccccc3)[nH]c3ccccc23)CC1
116 to 119 °C	O=C(NCc1cccnc1)c1ccc2n1Cc1ccccc1N(C(=O)c1ccc3c(c1)Cc1ccccc1-3)C2
91 to 94 °C	CCOC(=O)c1ccc(N(C(C)=O)C(=O)c2ccc(C(=O)C(C)(C)C)cc2)cc1
262 to 263 °C	CNc1ccccc1-c1nc2ncccc2[nH]1
150 to 165 °C	Nc1cccc(-c2ccc(C3CCN(Cc4ccc5c(c4)OCO5)CC3)cc2)n1
129 to 130 °C	Cc1ccc(-c2nc(COc3cccc(OCc4cccc(C)c4C(=O)O)c3)co2)s1
235 to 240 °C	CC(=O)N1CCc2cc(-c3ccc4c(c3)CCC3N(C)C(=O)CCC43C)cc([N+](=O)[O-])c21 (single isomer, unassigned; (+))
189 to 190 °C	COCSc1nccn1-c1cccc(C2=Nc3ccc(-c4ccccc4F)cc3NC(=O)C2)c1
94 to 96 °C	Cn1nc(-c2ccccc2)c2ccc(Cl)nc21
162 to 163 °C	O=C1C(c2ccccc2)=C(c2ccccc2)C(c2ccccc2)C1c1ccccc1 (stereo unspecified)
283 to 286 °C	O=c1c2c(n(-c3ccccc3)c3ncccc13)CCC(O)C2 (stereo unspecified)
230 to 233 °C	CCc1cc(NCc2ccc(-c3ccccc3C#N)cc2)n2nccc2n1
90 °C	N#CN=C(NCc1ccccn1)Nc1cccc(-c2cccc(S(=O)(=O)NC(CC(=O)O)c3ccccc3)c2)c1 (stereo unspecified)
48 °C	C=C(C(=O)OC)[C@@H](O)c1ccccc1

melting point	SMILES
174 °C	CC(C)(C)OC(=O)N1CCN(c2ccc3[nH]cc(Sc4ccccc4)c3c2)CC1
126 °C	C[C@H](NC(=O)c1ccc(C(N)=NO)cc1)C(=O)N1CCC(OCC(=O)OCOC(=O)C(C)(C)C)CC1
112 to 120 °C	CCC(C1CCCC1)C(O)(c1ccc(O)cc1)c1ccc(OCCN(C)C)cc1 (stereo unspecified)
75 to 76 °C	C=Cc1ccc(OC(=O)c2ccccc2)cc1
125 to 127 °C	CCCCc1nn(-c2ccccc2C(F)(F)F)c(=O)n1Cc1ccc(-c2ccccc2S(=O)(=O)NC(=O)C(F)(F)F)cc1
224 to 227 °C	COc1ccc2[nH]c(C(=O)N3CC(CCl)c4c3cc(O)c3ncccc43)cc2c1 (stereo unspecified)
97 to 99 °C	O=C1COC(COc2ccccc2Cc2cccs2)CN1Cc1ccccc1 (stereo unspecified)
127 to 130 °C	CC(C)(C)OC(=O)N[C@H](C(=O)N1CCC[C@H]1C(=O)NC1CCc2nc(N)ncc2C1)C(c1ccccc1)c1ccccc1 (stereo partly specified)
182 °C	Cc1cnc(COc2nn3c(-c4ccccc4)nnc3cc2-c2ccccc2)s1
158 to 159 °C	Cc1cccc(COc2cccc(OCc3coc(C4CCCCC4)n3)c2)c1C(=O)O
101 to 103 °C	CCCCCC(CC(=O)Nc1cc(C(N)=O)ccc1C(C)(C)C)c1cc(C(=O)OC)c(OC)cc1OC (stereo unspecified)
165 to 166 °C	CCc1c(-c2ccccc2)n(-c2ccccc2Cl)c(-c2ccccc2)cc1=O
192 to 194 °C	CCOC(=O)COCCN(C)C(=O)c1c(-c2ccc(C(C)(C)C)cc2)n(C)n(-c2ccc(C#N)cc2)c1=O
145 to 146 °C	CCCCCN1C(=O)C(=O)c2cc(SCCCc3ccc(C(=O)O)cc3)ccc21
120 to 122 °C	COc1cc2c(cc1N1CCN(CC3Cc4ccccc4C3)CC1)OC=CCO2
> 300 °C	NC(Cc1ccc(OCc2ccccc2)cn1)C(=O)Nc1ccc(CCCC(=O)NO)cc1 (stereo unspecified)
105 to 107 °C	O=CN1CCN=C1CC(c1ccccc1)c1ccccc1
189 to 192 °C	COc1ccc(N2CCOCC2)c2sc(NC(=O)N(C)C3CCC(F)(F)CC3)nc12
212 to 218 °C	CN(CC(=O)O)C[C@@H]1CC(c2ccc(-c3ccc(N4C[C@H](Cn5ccnn5)OC4=O)cc3F)cn2)=NO1
108 to 110 °C	CC(CNc1cccc(-c2ccnc3c(C(=O)c4cccs4)cnn23)c1)c1ccccc1 (stereo unspecified)
